Experimental data taken from PubChem BioAssay (NCI).
Where “and” joins values, the source holds several entries; their conditions need not be identical. Identical values can stand only once.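 The compound was tested at five concentrations on cells cultured in 96-well plates, with a 48-hour exposure period. The concentration for 50% growth inhibition is given as GI50. Definition used: TGI = concentration required for complete inhibition of growth.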

Tested on: MDA-MB-231 breast
Assay: growth of human tumour cells (NCI), 48 h

Q: What does the source list for Cn1c2ccccc2c2c3[nH]c(=O)[nH]c(=O)c3c3c4ccccc4n(C)c3c21?
A: GI50: 5.41 µM; TGI: 31.4 µM

Q: Which GI50 does the source give for O=C1/C(=C/c2ccc(O)cc2)CSc2ccc(Cl)cc21 here?
A: 17.8 µM

Q: What about the TGI of the same molecule?
A: 44.3 µM

Q: For Fc1ccc(-c2nn3ncccc3c2-c2ccnc(Nc3ccc4c(c3)OCCO4)n2)cc1, which GI50 is on record?
A: 1.22 µM

Q: And the TGI?
A: 6.01 µM

Q: Which GI50 does the source give for CC1(C)N=C(N)N=C(N)N1c1ccc(OCc2ccc(S(=O)(=O)F)c(Cl)c2)c(Cl)c1 here?
A: > 100 µM

Q: And the TGI?
A: > 100 µM

Q: CO[C@H]1C=C[C@@]23c4cc5c(cc4CO[C@]2(O)CN(C)[C@H]3C1)OCO5 was tested. Which TGI did it give?
A: > 100 µM

Q: COC(=O)c1c(C)[nH]c(/C=C2\N=C(c3ccc[nH]3)C=C2OC)c1C was tested. Which GI50 did it give?
A: 0.169 µM

Q: What about the TGI of the same molecule?
A: 1.27 µM

Q: Which GI50 does the source give for COc1cc2c3c(n(CCCCOC(=O)C(Cl)(Cl)Cl)c(=O)c2cc1OC)-c1cc2c(cc1C3=O)OCO2 here?
A: 50.3 µM

Q: What about the TGI of the same molecule?
A: > 100 µM

Q: With CCOC(=O)c1c(C)nc2c(c1N)/C(=C/c1ccc(OC)cc1)C(=O)N2Cc1ccc(F)cc1 as the molecule, how does the GI50 read?
A: 0.236 µM

Q: And the TGI?
A: 0.76 µM

Q: For C/C(=N\Nc1ccc(Cl)cn1)c1ccccn1, which GI50 is on record?
A: 0.0652 µM

Q: What about the TGI of the same molecule?
A: > 100 µM

Q: COc1cc(NS(=O)(=O)c2ccc(-c3cnc(C4CC4)o3)cc2)ccc1F was tested. Which GI50 did it give?
A: 1.36 µM

Q: What about the TGI of the same molecule?
A: 19.5 µM

Q: For CC(C)CCCC(=O)CCCCCCC(=O)CCN(O)C(=O)C(N)CO (stereo not drawn), which TGI is on record?
A: 34.7 µM

Q: Which results are given for Cc1ccc(NC(=O)NCCCOc2ccc(N3C(N)=NC(N)=NC3(C)C)cc2Cl)cc1S(=O)(=O)F?
A: GI50: 11.4 µM; TGI: > 100 µM

Q: With CC[CH2][Sn]([Cl])([Cl])[CH2]CC.Oc1ccccc1C=NCCN=Cc1ccccc1O as the molecule, how does the GI50 read?
A: 3.96 µM

Q: And the TGI?
A: 15.8 µM

Q: Which results are given for COc1ccccc1Cn1cc2c(c1-c1ccccc1)CCc1cnoc1-2?
A: GI50: 3.96 µM; TGI: > 100 µM

Q: For COc1cc2c(c(OC)c1OC)C(=O)[C@@H]1c3ccc([N+](=O)[O-])cc3C(=O)N(CCCBr)[C@H]21, which GI50 is on record?
A: 2.99 µM

Q: What about the TGI of the same molecule?
A: 25.3 µM

Q: For Nc1ncn(C2CC(O)C(CO)O2)c(=O)n1 (stereo not drawn), which TGI is on record?
A: > 343 µM

Q: How did the TGI turn out when C/C=C(\C)CC/C=C/CO[Si](C)(C)C(C)(C)C was run?
A: > 100 µM

Q: Which results are given for COc1cc2c3c(n(C)c(=O)c2cc1OC)-c1cc2c(cc1/C3=C\CNCCCN)OCO2?
A: GI50: 0.333 µM; TGI: 2.01 µM

Q: O=C(/C=C\n1cnc(-c2cc(C(F)(F)F)cc(C(F)(F)F)c2)n1)NNc1cnccn1 was tested. Which GI50 did it give?
A: 0.0577 µM

Q: What about the TGI of the same molecule?
A: 14.8 µM

Q: Which results are given for NCCCn1c2c(c3ccc([N+](=O)[O-])cc3c1=O)C(=O)c1cc(Br)ccc1-2?
A: GI50: 0.0364 µM and 0.0168 µM; TGI: 0.218 µM and 0.103 µM

Q: Which TGI does the source give for CN1C(=O)c2ccccc2NC(=O)C12O[C@@H]2c1cccc(O)c1 (stereo partly drawn) here?
A: > 100 µM

Tested on: COLO 205 colon
Assay: growth of human tumour cells (NCI), 48 h

Q: Cn1cnc([N+](=O)[O-])c1[Se]c1nc(N)nc2c1ncn2C1OC(CO)C(O)C1O (stereo not drawn) was tested. Which TGI did it give?
A: > 100 µM

Q: With C=C(C)C1CCC2(C(=O)O)CCC3(C)C(CCC4C5(C)CCC(OC(=O)NCc6ccccc6)C(C)(C)C5CCC43C)C12 (stereo not drawn) as the molecule, how does the GI50 read?
A: 1.82 µM

Q: What about the TGI of the same molecule?
A: 5.44 µM

Q: Clc1ccc(-c2c(C3=NCCCN3)nnn2-c2ccc(Cl)cc2)cc1 was tested. Which TGI did it give?
A: 32.8 µM

Q: How did the GI50 turn out when C=C[C@H]1C[C@@H]2C[C@@H]3[C@H]4C/C=C\C(=O)NCCCC5NC(=O)C(=C(O)/C=C/[C@@H]4CC(=O)[C@H]3[C@@H]2[C@H]1C)C5=O (stereo partly drawn) was run?
A: 1.78 µM

Q: And the TGI?
A: 3.21 µM

Q: How did the GI50 turn out when Cc1ccc(C(=O)Nc2ccc(CN3CCN(C)CC3)c(C(F)(F)F)c2)cc1C#Cc1cnc(N)c2ccccc12 was run?
A: 0.655 µM

Q: And the TGI?
A: 1.62 µM

Q: For C=C1CC[C@@H]2[C@](C)(COC(C)=O)[C@H](OC(C)=O)CC[C@@]2(C)[C@@H]1CC(Nc1ccc(S(=O)(=O)Nc2ncccn2)cc1)C1=CCOC1=O (stereo partly drawn), which GI50 is on record?
A: 1.78 µM

Q: And the TGI?
A: 3.8 µM

Q: With Cn1c2ccccc2c2c3[nH]c(=O)[nH]c(=O)c3c3c4ccccc4n(C)c3c21 as the molecule, how does the GI50 read?
A: 2.44 µM

Q: And the TGI?
A: > 100 µM

Q: Which GI50 does the source give for O=C1/C(=C/c2ccc(O)cc2)CSc2ccc(Cl)cc21 here?
A: 15.6 µM

Q: What about the TGI of the same molecule?
A: 29 µM

Q: What does the source list for Fc1ccc(-c2nn3ncccc3c2-c2ccnc(Nc3ccc4c(c3)OCCO4)n2)cc1?
A: GI50: 1.42 µM; TGI: > 25 µM

Q: For CC1(C)N=C(N)N=C(N)N1c1ccc(OCc2ccc(S(=O)(=O)F)c(Cl)c2)c(Cl)c1, which GI50 is on record?
A: 5.74 µM

Q: What about the TGI of the same molecule?
A: > 100 µM

Q: With CO[C@H]1C=C[C@@]23c4cc5c(cc4CO[C@]2(O)CN(C)[C@H]3C1)OCO5 as the molecule, how does the TGI read?
A: > 100 µM

Q: What does the source list for COC(=O)c1c(C)[nH]c(/C=C2\N=C(c3ccc[nH]3)C=C2OC)c1C?
A: GI50: 0.288 µM; TGI: 1.6 µM
